According to paper PMC7663979, “Design of Novel 4-Aminobenzofuroxans and Evaluation of Their Antimicrobial and Anticancer Activity” (International Journal of Molecular Sciences, 2020):
“And” between values parts separate entries of the source, which are not always exact repeats. Equal values may be shown once.

Columns and labels:
[1] = tested on: Microdochium nivale isolate 1; assay: Fungistatic activity, agar growth medium poison technique, isolate 1; assay type: cell-based; settings: 1 mM in PSA; for inhibition at 1000 µM: Microdochium nivale, 20 °C
Description: (§1) Fungistatic activity of the tested compounds was assessed in vitro using agar growth medium poison technique. The target compounds as well as widely used fungicides benzimidazole and carbendazim were dissolved to 10 mM concentration in 20% Tween 20. The obtained solutions were added 1:9 v/v (giving 1 mM-concentrations of the target compounds) to potato-sucrose agar (PSA) at 60 °C, mixed thoroughly and transferred to Petri dishes. For the control variants, PSA was supplemented with 20% Tween 20 (9:1). Fungistatic effect was tested against two isolates of Microdochium nivale causing snow mold disease of winter cereals (rye) from the culture collection of FRC Kazan Scientific Center of RAS. […] The center of each solidified medium was inoculated upside-down with 5-mm diameter mycelial plug cut from the periphery of 10-day-old cultures. The tested dishes were incubated at 20 °C. The percentage growth inhibition was calculated using Abbott’s formula (1):%Inhibition = [(A − B) ÷ A] × 100(1) where ‘A’ is mycelia growth in the control conditions and ‘B’ is mycelia growth in the treatment conditions. The assay was performed at least in triplicate. Linear growth of each colony was determined during 6 days.

[2] = tested on: Microdochium nivale isolate 21; assay: Fungistatic activity, agar growth medium poison technique, isolate 21; assay type: cell-based; settings: 1 mM in PSA; for inhibition at 1000 µM: Microdochium nivale
Description: as §1

PANC-1 = assay: Cytotoxicity assay (Cytell Cell Viability BioApp), PANC-1; assay type: cell-based, human; settings: for IC50: Homo sapiens, PANC-1, mean ± SD, three experiments; for SI PANC-1: selectivity index = IC50 normal cells (Chang liver) / IC50 cancer cells, n.s. = no selectivity
MCF7 = assay: Cytotoxicity assay (Cytell Cell Viability BioApp), MCF7; assay type: cell-based, human; settings: for IC50: Homo sapiens, MCF7, mean ± SD, three experiments; for SI MCF7: selectivity index = IC50 normal cells (Chang liver) / IC50 cancer cells, n.s. = no selectivity
T98G = assay: cells; assay type: cell-based, human; settings: for IC50: Homo sapiens, T98G, read-out: IC50 T98G; for SI T98G: selectivity index = IC50 normal cells (Chang liver) / IC50 cancer cells, n.s. = no selectivity
Chang Liver = assay: Cytotoxicity assay (Cytell Cell Viability BioApp), normal Chang liver cells; assay type: cell-based; settings: Homo sapiens, mean ± SD, three experiments, read-out: IC50 Chang Liver (normal cell line)
M-HeLa = assay: Cytotoxicity assay (Cytell Cell Viability BioApp), M-HeLa; assay type: cell-based, human; settings: for IC50: Homo sapiens, M-HeLa, mean ± SD, three experiments; for SI M-HeLa: selectivity index = IC50 normal cells (Chang liver) / IC50 cancer cells, n.s. = no selectivity
M-HeLa cells [3] = assay: Cell cycle analysis, propidium iodide, flow cytometry; assay type: cell-based, human; settings: 24 h, control cells 34.28%
Description: (§2) Cell Culture. M-HeLa cells at 10^6 cells/ well in a final volume of 2 mL were seeded into 6-well plates. After 24 h of incubation, various concentrations of compounds 3c and 3f were added to wells.
The DNA content and cell-cycle distribution after […] were estimated by flow cytometry. Cell seeding, drug treatment and ethanol fixation were similar to cell proliferation assay. After washing with PBS, […] were suspended in 150 μL of PBS, then 0.5 mL phosphate-citrate buffer (0.05 M, pH = 4.0) was added and the suspension was incubated at room temperature for 5 min to facilitate the extraction of low molecular weight DNA. Following centrifugation the cells were resuspended in 150 μL DNA staining solution (20 μg/mL propidium iodide, 200 μg/mL […], and 0.1% Triton X-100) and incubated in the CO2 incubator (37 °C for 30 min). Cell cycle distribution was determined by fluorescence-activated cell sorting analysis of propidium iodide-stained ethanol-fixed cells using a Guava EasyCyte (Guava easyCyte, MERCK, Kenilworth, NJ, USA).

M-HeLa cells [4] = assay: Cell apoptosis analysis by flow cytometry (annexin V-Alexa Fluor 647 / propidium iodide); assay type: cell-based, human; settings: 24 h
Description: as §2
Cell Apoptosis Analysis. The cells were harvested at 2000 rpm for 5 min and, then, washed twice with ice-cold PBS, followed by resuspension in binding buffer 100 μL. Next, the samples were incubated with 0.35 μL of annexin V-Alexa Fluor 647 and 0.1 μL of propidium iodide for 40 min at room temperature in the dark. Finally, the cells were analyzed by flow cytometry (Guava easyCyte, MERCK, Kenilworth, NJ, USA). The experiments were repeated three times.

SMILES | fungistatic activity (result in words) [1] | IC50 (PANC-1) [µM] | SI PANC-1 (PANC-1) | IC50 (MCF7) [µM] | SI MCF7 (MCF7) | IC50 (T98G) [µM] | SI T98G (T98G) | IC50 (Chang Liver) [µM] | IC50 (M-HeLa) [µM] | SI M-HeLa (M-HeLa) | inhibition at 1000 µM ([2]; fifth day of incubation, 20 °C) [%] | other results
O=[N+]([O-])c1c(Cl)cc2c(no[n+]2[O-])c1Cl [4,6-dichloro-5-nitrobenzofuroxan, reference compound] | not effective |  |  |  |  |  |  |  |  |  |  | fungistatic activity (result in words) [2]: not effective
O=[N+]([O-])c1c(Cl)cc2c(no[n+]2[O-])c1Nc1ccc(F)cc1 [Compound 3a, 6-chloro-4-((4-fluorophenyl)amino)-5-nitrobenzofuroxan] |  | > 100 | n.s | > 100 | n.s. | 28.3 ± 2.3 | 3.3 | 93.8 ± 8.3 | 45.9 ± 3.7 | 2.0 |  | 
O=[N+]([O-])c1c(Cl)cc2c(no[n+]2[O-])c1Nc1ccc(Cl)cc1 [Compound 3b, 6-chloro-4-((4-chlorophenyl)amino)-5-nitrobenzofuroxan] |  | 82.7 ± 7.3 | n.s | 69.2 ± 5.7 | n.s. | 12.7 ± 1.1 | 5.0 | 62.7 ± 5.5 | 60.6 ± 4.7 | 1.0 | > 40 | inhibition at 1000 µM ([1]; fifth day of incubation): > 40%; inhibition at 1000 µM ([1]; sixth day of incubation): > 25%; inhibition at 1000 µM ([2]; sixth day of incubation, 20 °C): > 25%
O=[N+]([O-])c1c(Cl)cc2c(no[n+]2[O-])c1Nc1ccc(Br)cc1 [Compound 3c, 4-((4-bromophenyl)amino)-6-chloro-5-nitrobenzofuroxan] |  | 59.2 ± 4.6 | 1.0 | 3.7 ± 0.2 | 16.6 | 20.4 ± 1.7 | 3 | 61.3 ± 5.1 | 4.8 ± 0.4 | 12.8 | > 40 | inhibition at 1000 µM ([1]; fifth day of incubation): > 40%; inhibition at 1000 µM ([1]; sixth day of incubation): > 25%; inhibition at 1000 µM ([2]; sixth day of incubation, 20 °C): > 25%; cells in G0/G1 phase (G1) (M-HeLa cells [3]; 5 μM): 62.9% and 62.91%; cells in G0/G1 phase (G1) (M-HeLa cells [3]; 10 μM): 70.1% and 70.06%; D—dead cells (M-HeLa cells [4]; 5 μM): 3.92%; Ea—early apoptotic cells (M-HeLa cells [4]; 5 μM): 6.67%; La—late apoptotic cells (M-HeLa cells [4]; 5 μM): 8.63%; L—living cells (M-HeLa cells [4]; 5 μM): 80.78%; D—dead cells (M-HeLa cells [4]; 10 μM): 6.16%; Ea—early apoptotic cells (M-HeLa cells [4]; 10 μM): 17.33%; La—late apoptotic cells (M-HeLa cells [4]; 10 μM): 15.69%; L—living cells (M-HeLa cells [4]; 10 μM): 60.82%
N#Cc1ccc(Nc2c([N+](=O)[O-])c(Cl)cc3c2no[n+]3[O-])cc1 [Compound 3d, 6-chloro-4-((4-cyanophenyl)amino)-5-nitrobenzofuroxan] |  | 61.3 ± 5.1 | >1.6 | 67.9 ± 5.7 | >1.5 | 14.7 ± 1.2 | >6.8 | > 100 | 16.6 ± 1.4 | >6 |  | 
COc1ccccc1Nc1c([N+](=O)[O-])c(Cl)cc2c1no[n+]2[O-] [Compound 3e, 6-chloro-4-((2-methoxyphenyl)amino)-5-nitrobenzofuroxan] | inefficient | 50 ± 4.1 | 1.3 | 79.5 ± 6.4 | n.s. | 21.5 ± 1.8 | 3.0 | 62.7 ± 5.6 | 62.7 ± 5.4 | 1.0 |  | fungistatic activity (result in words) [2]: one of the most pronounced inhibitory effects
CCCCNc1c([N+](=O)[O-])c(Cl)cc2c1no[n+]2[O-] [Compound 5a, 4-(butylamino)-6-chloro-5-nitrobenzofuroxan] | one of the most effective | > 100 | n.s. | > 100 | n.s. | 22.7 ± 1.9 | 4.4 | 100 | 56.5 ± 4.5 | 1.8 | 10 | growth inhibition ([2]; sixth day of incubation, 20 °C): did not cause any inhibition
